target: AMPK; test: AMPK activation, enzyme-linked immunosorbent assay; type: biochemical; details: compounds of Table 1 (Table 6)

Structure (SMILES) | EC50 [nM]
O=C(NC1CCNCC1)c1cc2cc(OC3CCN(c4ccc(C(F)(F)F)cc4)CC3)ccc2o1 [1-86, N-(piperidin-4-yl)-5-(1-(4-(trifluoromethyl)phenyl)piperidin-4-yloxy)benzofuran-2-carboxamide] | > 10000
O=C(NC1CCN(Cc2cccnc2)CC1)c1cc2ccc(OC3CCN(c4ccc(C(F)(F)F)cc4)CC3)cc2o1 [1-96, N-(1-(pyridin-3-ylmethyl)piperidin-4-yl)-6-(1-(4-(trifluoromethyl)phenyl)piperidin-4-yloxy)benzofuran-2-carboxamide] | < 100
O=C(NC1CCN(Cc2ccncc2)CC1)c1cncc(OC2CCN(c3ccc(C(F)(F)F)cc3)CC2)c1 [1-14, N-(1-(pyridin-4-ylmethyl)piperidin-4-yl)-5-(1-(4-(trifluoromethyl)phenyl)piperidin-4-yloxy)nicotinamide] | < 100
O=C(NC1CCN(Cc2cccnc2)CC1)c1ccc(OC2CCN(c3ccc(C(F)(F)F)cc3)CC2)cn1 [1-5, N-(1-(pyridin-3-ylmethyl)piperidin-4-yl)-5-(1-(4-(trifluoromethyl)phenyl)piperidin-4-yloxy)picolinamide] | < 100
O=C(NC1CCNCC1)c1cc2ccc(OC3CCN(c4ccc(OC(F)(F)F)cc4)CC3)cc2o1 [1-83, N-(piperidin-4-yl)-6-(1-(4-(trifluoromethoxy)phenyl)piperidin-4-yloxy)benzofuran-2-carboxamide] | 100 to 500
O=C(N[C@@H]1CCN(Cc2ccccn2)C1)c1cc2cc(OC3CCN(c4ccc(C(F)(F)F)cc4)CC3)ccc2o1 [1-124, (R)-N-(1-(pyridin-2-ylmethyl)pyrrolidin-3-yl)-5-(1-(4-(trifluoromethyl)phenyl)piperidin-4-yloxy)benzofuran-2-carboxamide] | 1000 to 5000
N#Cc1ccc(CN2CCC(NC(=O)c3cc4ccc(OC5CCN(c6ccc(C(F)(F)F)cc6)CC5)cc4s3)CC2)cc1 [1-144, N-(1-(4-cyanobenzyl)piperidin-4-yl)-6-(1-(4-(trifluoromethyl)phenyl)piperidin-4-yloxy)benzo[b]thiophene-2-carboxamide] | < 100
O=C(NC1CCN(Cc2cncnc2)CC1)c1ccc(OC2CCN(c3ccc(C(F)(F)F)cc3)CC2)cn1 [1-44, N-(1-(pyrimidin-5-ylmethyl)piperidin-4-yl)-5-(1-(4-(trifluoromethyl)phenyl)piperidin-4-yloxy)picolinamide] | 100 to 500
CC(C)(C)OC(=O)N1CC[C@@H](NC(=O)c2ccc(OC3CCN(c4ccc(C(F)(F)F)cc4)CC3)cn2)C1 [1-23, (R)-tert-butyl 3-(5-(1-(4-(trifluoromethyl)phenyl)piperidin-4-yloxy)picolinamido)pyrrolidine-1-carboxylate] | 100 to 500

same assay, conditions: compounds of Table 2 (Table 7)

Structure (SMILES) | EC50 [nM]
N#Cc1cccc(S(=O)(=O)N2CCC(NC(=O)c3ccc4[nH]c5c(c4c3)CN(Cc3ccc(C(F)(F)F)cc3)CC5)CC2)c1 [2-29, N-(1-(3-cyanophenyl-sulfonyl)piperidin-4-yl)-2-(4-(trifluoro-methyl)benzyl)-2,3,4,5-tetrahydro-1H-pyrido[4,3-b]indole-8-carboxamide] | 1000 to 5000
NC(=O)c1ccc(CN2CCC(NC(=O)c3ccc4[nH]c5c(c4c3)CN(Cc3ccc(C(N)=O)cc3)CC5)CC2)cc1 [2-49, 2-(4-carbamoylbenzyl)-N-(1-(4-carbamoylbenzyl)piperidin-4-yl)-2,3,4,5-tetrahydro-1H-pyrido [4,3-b]indole-8-carboxamide] | > 100000
O=C(NC1CCN(S(=O)(=O)c2cccnc2)CC1)c1ccc2[nH]c3c(c2c1)CN(Cc1ccc(C(F)(F)F)cc1)CC3 [2-22, N-(1-(pyridin-3-ylsulfonyl)piperidin-4-yl)-2-(4-(trifluoromethyl)benzyl)-2,3,4,5-tetrahydro-1H-pyrido[4,3-b]indole-8-carboxamide] | 500 to 1000
N#Cc1ccc(CN2CCC(NC(=O)c3ccc4[nH]c5c(c4c3)CN(Cc3ccc(C(N)=O)cc3)CC5)CC2)cc1 [2-44, 2-(4-carbamoylbenzyl)-N-(1-(4-cyanobenzyl)piperidin-4-yl)-2,3,4,5-tetrahydro-1H-pyrido [4,3-b]indole-8-carboxamide] | 10000 to 50000
N#Cc1ccc(NC(=O)N2CCC(NC(=O)c3ccc4[nH]c5c(c4c3)CN(Cc3ccc(C(F)(F)F)cc3)CC5)CC2)cc1 [2-27, N-(1-(4-cyanophenyl-carbamoyl)piperidin-4-yl)-2-(4-(trifluoromethyl)benzyl)-2,3,4,5-tetrahydro-1H-pyrido [4,3-b]indole-8-carboxamide] | 1000 to 5000

same assay, conditions: compounds of Table 3 (Table 8)

Structure (SMILES) | EC50 [nM]
O=C(NC1CCN(Cc2ccncc2)CC1)c1cn2ccc(OC3CCN(c4ccc(C(F)(F)F)cc4)CC3)cc2n1 [3-17, N-(1-(pyridin-4-ylmethyl)piperidin-4-yl)-7-(1-(4-(trifluoromethyl)phenyl)piperidin-4-yloxy)imidazo[1,2-a]pyridine-2-carboxamide] | < 100
O=C(c1ccc(F)cc1)N1CC2CC1CN2C(=O)c1nc2ccc(OC3CCN(c4ccc(C(F)(F)F)cc4)CC3)cc2o1 (centres unmarked) [3-13, (5-(4-fluorobenzoyl)-2,5-diazabicyclo[2.2.1]heptan-2-yl)(6-(1-(4-(trifluoromethyl)phenyl)piperidin-4-yloxy)benzo[d]oxazol-2-yl)methanone] | < 100
N#Cc1ccc(CN2CCC(NC(=O)c3nc4ccc(OC5CCN(c6ccc(C(F)(F)F)cc6)CC5)cc4o3)CC2)cc1 [3-2, N-(1-(4-cyanobenzyl)piperidin-4-yl)-6-(1-(4-(trifluoromethyl)phenyl)piperidin-4-yloxy)benzo[d]oxazole-2-carboxamide] | < 100

same assay, conditions: compounds of Table 4 (Table 9)

Structure (SMILES) | EC50 [nM]
N#Cc1ccc(CN2CCC(NC(=O)c3ccc(C(=O)N4CCN(Cc5ccc(C#N)cc5)CC4)cn3)CC2)cc1 [4-1, 5-(4-(4-cyanobenzyl)piperazine-1-carbonyl)-N-(1-(4-cyanobenzyl)piperidin-4-yl)picolinamide] | < 500
N#Cc1ccc(CN2CC[C@H](NC(=O)c3ccc(C(=O)N4CCN(c5ccc(Cl)cc5)CC4)cn3)C2)cc1 [4-6, (S)-5-(4-(4-chlorophenyl)piperazine-1-carbonyl)-N-(1-(4-cyanobenzyl)pyrrolidin-3-yl)picolinamide] | 500 to 1000

same assay, conditions: compounds of Table 5 (Table 10)

Structure (SMILES) | EC50 [nM]
O=C(NC1CCN(Cc2ccccc2)CC1)c1ccc(OC2CCN(Cc3ccc(OC(F)(F)F)cc3)CC2)c(F)c1 [5-57, N-(1-benzylpiperidin-4-yl)-3-fluoro-4-(1-(4-(trifluoromethoxy)benzyl)piperidin-4-yloxy)benzamide] | < 1000
O=C(NC1CCN(Cc2ccccc2)CC1)c1ccc(OC2CCN(Cc3ccco3)CC2)cc1 [5-3, N-(1-benzylpiperidin-4-yl)-4-(1-(furan-2-ylmethyl)piperidin-4-yloxy)benzamide] | 1000 to 10000
O=C(NCCCN1CCOCC1)c1ccc(OC2CCN(Cc3ccc(Cl)cc3)CC2)cc1 [5-100, 4-(1-(4-chlorobenzyl)piperidin-4-yloxy)-N-(3-morpholinopropyl)benzamide] | 1000 to 10000
O=C(NC1CCN(Cc2ccccc2)CC1)c1cc(Cl)c(OC2CCN(Cc3ccc(Cl)cc3)CC2)c(Cl)c1 [5-75, N-(1-benzylpiperidin-4-yl)-3,5-dichloro-4-(1-(4-chlorobenzyl)piperidin-4-yloxy)benzamide] | < 1000
COc1cc(C(=O)NC2CCN(Cc3ccccc3)CC2)ccc1OC1CCN(c2ccco2)CC1 [5-12, N-(1-benzylpiperidin-4-yl)-3-methoxy-4-(1-(furan-2-yl)piperidin-4-yloxy)benzamide] | 1000 to 10000
O=C(NC1CCN(Cc2ccccc2)CC1)c1ccc(OC2CCN(Cc3ccccc3C(F)(F)F)CC2)c(Cl)c1 [5-24, N-(1-benzylpiperidin-4-yl)-3-chloro-4-(1-(2-(trifluoromethyl)benzyl)piperidin-4-yloxy)benzamide] | 10000 to 20000
N#Cc1ccc(CN2CCC(Oc3cccc(C(=O)NC4CCN(Cc5ccccc5)CC4)c3)CC2)cc1 [5-50, N-(1-benzylpiperidin-4-yl)-3-(1-(4-cyanobenzyl)piperidin-4-yloxy)benzamide] | 1000 to 10000
O=C(NC1CCN(C(=O)c2ccc(F)cc2)CC1)c1ccc(OC2CCN(c3ccc(C(F)(F)F)cc3)CC2)c(F)c1 [5-31, 3-fluoro-N-(1-(4-fluorobenzoyl)piperidin-4-yl)-4-(1-(4-(trifluoromethyl)phenyl)piperidin-4-yloxy)benzamide] | < 1000
N#Cc1ccc(CN2CCC(Oc3ccc(C(=O)NC4CCN(Cc5ccccc5)CC4)cc3Cl)CC2)cc1 [5-67, N-(1-benzylpiperidin-4-yl)-3-chloro-4-(1-(4-cyanobenzyl)piperidin-4-yloxy)benzamide] | < 1000
N#Cc1ccc(CN2CCC(Oc3ccc(C(=O)NC4CCN(Cc5ccncc5)CC4)cc3)CC2)cc1 [5-83, 4-(1-(4-cyanobenzyl)piperidin-4-yloxy)-N-(1-(pyridin-4-ylmethyl)piperidin-4-yl)benzamide] | < 1000
N#Cc1ccc(CN2CCC(Oc3c(Cl)cc(C(=O)NC4CCN(Cc5ccccc5)CC4)cc3Cl)CC2)cc1 [5-77, N-(1-benzylpiperidin-4-yl)-3,5-dichloro-4-(1-(4-cyanobenzyl)piperidin-4-yloxy)benzamide] | < 1000
O=C(NC1CCN(Cc2ccccc2)CC1)c1cccc(OC2CCN(c3ccccn3)CC2)c1 [5-86, N-(1-benzylpiperidin-4-yl)-3-(1-(pyridin-2-yl)piperidin-4-yloxy)benzamide] | < 1000
O=C(NC1CCN(Cc2ccccc2)CC1)c1ccc(OC2CCN(c3ccc(C(F)(F)F)cc3)CC2)c(Cl)c1 [5-17, N-(1-benzylpiperidin-4-yl)-3-chloro-4-(1-(4-(trifluoromethyl)phenyl)piperidin-4-yloxy)benzamide] | < 1000
O=C(NC1CCN(Cc2ccccc2)CC1)c1ccc(OC2CCN(Cc3ccc(Cl)c(Cl)c3)CC2)c(Cl)c1 [5-84, N-(1-benzylpiperidin-4-yl)-3-chloro-4-(1-(3,4-dichlorobenzyl)piperidin-4-yloxy)benzamide] | < 1000
O=C(NC1CCN(Cc2ccccc2)CC1)c1ccc(OC2CCN(Cc3cccc(C(F)(F)F)c3)CC2)c(F)c1 [5-59, N-(1-benzylpiperidin-4-yl)-3-fluoro-4-(1-(3-(trifluoromethyl)benzyl)piperidin-4-yloxy)benzamide] | < 1000
CC(c1ccccc1)N1CCC(Oc2ccc(C(=O)NC3CCN(Cc4ccccc4)CC3)cc2F)CC1 (centres unmarked) [5-21, N-(1-benzylpiperidin-4-yl)-3-fluoro-4-(1-(1-phenylethyl)piperidin-4-yloxy)benzamide] | 1000 to 10000
